In patent US7737127B2, “2-propynyl adenosine analogs having A2A agonist activity and compositions thereof” (University of Virginia Patent Foundation, priority 2001, dated 2010):
Where two headings read alike, the source gives them in different places.

How the values were obtained:
human neutrophils = assay: Human neutrophil oxidative activity, luminol-enhanced chemiluminescence; format: cell-based
Protocol: Chemiluminescence Methods: Lumninol enhanced chemiluminescence, a measure of neutrophil oxidative activity, is dependent upon both superoxide production and mobilization of the granule enzyme myeloperoxidase. The light is emitted from unstable high-energy oxygen species such as hypochlorous acid and singlet oxygen generated by activated neutrophils.
The plate was incubated 5 min (37 C) and then fMLP (50 l in HA; final concentration […]) was added to all wells.
Data are presented as peak chemiluminescence as percent of activity in the absence of an adenosine agonist. The EC50 was determined using PRISM software. All compounds were tested with PMNs from three separate donors.
Lummol-enhanced chemiluminescence, a measure of neutrophil oxidative activity, is dependent upon both superoxide production and mobilization of the lysosomal granule enzyme myeloperoxidase. The light is emitted from unstable high-energy oxygen species generated by activated neutrophils. Purified neutrophils (5-10×10^5/ml) were incubated in Hanks balanced salt solution containing 0.1% human serum albumin (1 ml) with the tested A2A agonist with or without rolipram and with or without tumor necrosis factor-alpha (1 U/ml) for 30 minutes at 37° C. in a shaking water bath. […] Chemiluminescence is reported as relative peak light emitted (=height of the curve) compared to samples with tumor necrosis factor-alpha and without agonist or rolipram.

A3 AR = target: T1, A3 AR (Homo sapiens, UniProt P0DMS8); assay: Radioligand competition binding (125I-ABA) to human A3 AR in HEK 293 cell membranes; settings: for Ki: A3 ± SEM, Ki from competition binding, 125I-ABA, HEK 293 cell membranes; for A3/A2A: selectivity ratio A3 over A2A
T1 sequence (P0DMS8 1-318): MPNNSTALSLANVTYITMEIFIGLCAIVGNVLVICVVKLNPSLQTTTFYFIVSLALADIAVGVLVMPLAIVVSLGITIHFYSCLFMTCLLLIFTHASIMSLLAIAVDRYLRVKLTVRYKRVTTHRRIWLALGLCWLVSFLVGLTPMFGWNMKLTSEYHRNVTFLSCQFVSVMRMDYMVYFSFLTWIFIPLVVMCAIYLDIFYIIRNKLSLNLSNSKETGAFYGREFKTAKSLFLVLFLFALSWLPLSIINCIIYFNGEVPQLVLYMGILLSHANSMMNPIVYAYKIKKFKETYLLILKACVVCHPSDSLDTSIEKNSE
Protocol: Sf9 cells were cultured in Grace's medium supplemented with 10% fetal bovine serum, 2.5 μg/ml amphotericin B and 50 μg/ml gentamycin in an atmosphere of 50% N2/50% O2. […] Infected cells were harvested 3 days post-infection and washed twice in insect PBS (PBS pH 6.3). Cells were then resuspended in lysis buffer (20 mM HEPES pH 7.5, 150 mM NaCl, 3 mM MgCl2, 1 mM β-mercaptoethanol (BME), 5 μg/mL leupeptin, 5 μg/mL pepstatin A, 1 μg/mL aprotinin, and 0.1 mM PMSF) and snap frozen for storage at −80° C. Cells were thawed on ice, brought to 30 mL total volume in lysis buffer, and burst by N2 cavitation (600 psi for 20 minutes). A low-speed centrifugation was performed to remove any unlysed cells (1000×g for 10 minutes), followed by a high-speed centrifugation (17,000×g for 30 minutes). The pellet from the final centrifugation was homogenized in buffer containing 20 mM HEPES pH 8, 100 mM NaCl, 1% glycerol, 2 μg/mL leupeptin, 2 μg/mL pepstatin A, 2 μg/mL Aprotinin, 0.1 mM PMSF, and 10 μM GDP using a small glass homogenizer followed by passage through a 26 gauge needle. Membranes were aliquoted, snap frozen in liquid N2, and stored at −80° C.
Binding experiments were performed in triplicate with 5 μg (A2A) or 25 μg (A1 and A3) membrane protein in a total volume of 0.1 mL HE buffer (20 mM HEPES and 1 mM EDTA) with 1 U/mL adenosine deaminase and 5 mM MgCl2 with or without 50 μM GTPγS. Membranes were incubated with radioligands at room temperature for three hours (for agonists) or two hours (for antagonists) in Millipore Multiscreene® 96-well GF/C filter plates and assays were terminated by rapid filtration on a cell harvester (Brandel, Gaithersburg, Md.) followed by 4×150 μl washes over 30 seconds with ice cold 10 mM Tris-HCl, pH 7.4, 10 mM MgCl2.

[1] = target: recombinant human A2A receptors (Homo sapiens, UniProt P29274); assay: Radioligand competition binding to recombinant human A2A receptors in Sf9 cell membranes
recombinant human A2A receptors, sequence (P29274 whole entry): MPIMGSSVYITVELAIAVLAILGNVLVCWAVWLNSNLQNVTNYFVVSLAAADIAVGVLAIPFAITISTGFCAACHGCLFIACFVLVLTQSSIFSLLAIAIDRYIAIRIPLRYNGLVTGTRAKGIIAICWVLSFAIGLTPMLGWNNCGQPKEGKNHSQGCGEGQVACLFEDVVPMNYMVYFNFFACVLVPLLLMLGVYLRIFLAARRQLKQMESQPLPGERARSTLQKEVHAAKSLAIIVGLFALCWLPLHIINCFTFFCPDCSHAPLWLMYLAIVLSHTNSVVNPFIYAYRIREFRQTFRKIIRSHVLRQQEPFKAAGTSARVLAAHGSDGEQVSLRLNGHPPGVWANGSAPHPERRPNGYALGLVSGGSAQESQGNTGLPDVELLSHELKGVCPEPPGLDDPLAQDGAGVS

human A1 AR = target: T2, human A1 AR (Homo sapiens, UniProt P30542); assay: Radioligand competition binding (125I-ABA) to human A1 AR in CHO K1 cell membranes; settings: for Ki: A1 ± SEM, Ki from competition binding, 125I-ABA, CHO K1 cell membranes; for A1/A2A: selectivity ratio A1 over A2A
T2 sequence (P30542 1-326): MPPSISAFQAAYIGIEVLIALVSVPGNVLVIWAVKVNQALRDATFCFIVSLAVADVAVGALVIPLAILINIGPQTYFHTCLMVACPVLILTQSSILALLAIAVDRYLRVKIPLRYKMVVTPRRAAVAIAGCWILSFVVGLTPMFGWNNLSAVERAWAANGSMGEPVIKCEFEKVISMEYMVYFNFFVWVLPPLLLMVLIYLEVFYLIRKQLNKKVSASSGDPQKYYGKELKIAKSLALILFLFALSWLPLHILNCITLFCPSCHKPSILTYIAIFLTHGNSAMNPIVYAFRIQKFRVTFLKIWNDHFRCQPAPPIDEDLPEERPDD

[2] = Homo sapiens, Neutrophil, human neutrophil experiment w/o Rolipram, read-out: PMN oxid (-log EC50) (converted)
[3] = human neutrophil experiment w/Rolipram
[4] = human neutrophil experiment w/o Rolipram, read-out: PMN oxid (-log EC50) (converted)
[5] = A2A ± SEM, Ki from competition binding, Sf9 cell membranes

Row | SMILES | EC50 (human neutrophils; [2]) | PMN oxid + roli (-log EC50) (human neutrophils; [3]) | EC50 (human neutrophils; [4]) | other results
1 | OC[C@H]1O[C@@H](n2cnc3c(NC4CCCC4)ncnc32)[C@H](O)[C@@H]1O [CPA, N^6-cyclopentyladenosine, reference compound] | 93300 nM | 7.06 |  | Ki (A3 AR): 93 ± 7 nM; Ki ([1]; A2A ± SEM): 19.8 ± 3.2 nM
2 | CCNC(=O)[C@H]1O[C@@H](n2cnc3c(N)nc(C#CC4(O)CCCC4)nc32)C(O)C1O (stereo in doubt) [JR-3135, 5-[6-Amino-2-(1-hydroxy-cyclopentylethynyl)-purin-9-yl]-3,4-dihydroxytetrahydrofuran-2-carboxylic acid ethylamide] | 1.26 nM | 9.6 |  | Ki (human A1 AR): 5 ± 1.3 nM; Ki (A3 AR): 3.5 ± 1.2 nM
3 | CCNC(=O)[C@H]1O[C@@H](n2cnc3c(N)nc(NCCc4ccc(CCC(=O)O)cc4)nc32)[C@H](O)[C@@H]1O [CGS-21680, 2-[4-(2-carboxyethyl)phenethylamino]-5′-N-ethyl-carboxamidoadenosine, reference compound] | 30.2 nM |  |  | EC50 (human neutrophils; Homo sapiens, Neutrophil, human neutrophil experiment w/Rolipram, read-out: PMN oxid + roli (-log EC50) (converted)): 2.82 nM
4 | CNC(=O)[C@H]1O[C@@H](n2cnc3c(NCc4cccc(I)c4)nc(Cl)nc32)[C@H](O)[C@@H]1O [CI-IBMECA, N^6-3-iodo-2-chlorobenzyladenosine-5′-N-methyluronamide, reference compound] |  |  | 45700 nM | 
5 | OC[C@H]1O[C@@H](n2cnc3c(NC4CCCC4)nc(Cl)nc32)[C@H](O)[C@@H]1O [CCPA, 2-chloro-N^6-cyclopentyladenosine, reference compound] |  | 7.26 | 4270 nM | 
6 | CNC(=O)[C@H]1O[C@@H](n2cnc3c(NCc4cccc(I)c4)ncnc32)[C@H](O)[C@@H]1O [IBMECA, N^6-3-iodobenzyladenosine-5′-N-methyluronamide, reference compound] |  | 8.01 | 324 nM | 
7 | CCNC(=O)[C@H]1O[C@@H](n2cnc3c(N)nc(C#CC[C@H]4CC[C@H](COC(=O)OCc5ccccc5)CC4)nc32)C(O)C1O (stereo partly drawn) [ATL216, N-Ethyl 2-{3-[trans-4-(benzoxycarbonyloxamethyl)-cyclohexyl]-1-propyn-1-yl}adenosine-5′-uronamide] | 13 nM |  |  | Ki [1, 5]: 2.7 nM
8 | CCNC(=O)[C@H]1O[C@@H](n2cnc3c(N)ncnc32)[C@H](O)[C@@H]1O [NECA, 5′-N-ethylcarboxamidoadenosine, reference compound] |  | 8.95 | 15.1 nM | 
9 | CCNC(=O)[C@H]1O[C@@H](n2cnc3c(N)nc(C#CC[C@H]4CC[C@H](COC(=O)OCC(C)C)CC4)nc32)C(O)C1O (stereo partly drawn) [ATL215, N-Ethyl 2-{3-[trans-4-(isobutoxyoxycarbonyloxamethyl)-cyclohexyl]-1-propyn-1-yl}adenosine-5′-uronamide] | 20 nM |  |  | Ki [1, 5]: 4.8 nM
10 | CCNC(=O)[C@H]1O[C@@H](n2cnc3c(N)nc(C#CCN4CC5CC4CN5C(=O)OC(C)(C)C)nc32)C(O)C1O (stereo in doubt) [JR-4015, 5-{3-[6-Amino-9-(5-ethylcarbamoyl-3,4-dihydroxytetrahydrofuran-2-yl)-9H-purin-2-yl]prop-2-ynyl}-2,5-diazabicyclo[2.2.1]heptane-2-carboxylic acid tert-butyl ester] |  |  |  | A1/A2A (human A1 AR): 0.0; A3/A2A (A3 AR): 0.0; Ki [1]: 4.25 ± 1 nM
11 | CCNC(=O)[C@H]1O[C@@H](n2cnc3c(N)nc(C#CCC4CCC(C(=O)OC)CC4)nc32)C(O)C1O (stereo in doubt) [ATL-146e, 4-{3-[6-Amino-9-(5-ethylcarbamoyl-3,4-dihydroxytetrahydrofuran-2-yl)-9H-purin-2-yl]-prop-2-ynyl}-cyclohexanecarboxylic acid methyl ester] |  | 9.33 | 3.55 nM | Ki (human A1 AR): 77 ± 12 nM; A1/A2A (human A1 AR): 154.0; Ki (A3 AR): 45 ± 15 nM; A3/A2A (A3 AR): 90.0
